According to patent publication US20230406850A1, “CRYSTALLINE FORM OF HETEROCYCLIC COMPOUND, PREPARATION METHOD THEREFOR AND APPLICATION THEREOF” (WUHAN LL SCIENCE AND TECHNOLOGY DEVELOPMENT CO., LTD., priority 2020, published 2023):

Columns and labels:
[1] = molecular target: T1, hP2X3 (human purinergic P2X receptor subtype 3) (Homo sapiens, UniProt P56373); test: FLIPR intracellular calcium assay, hP2X3 in HEK293 cells; assay type: cell-based; details: agonist BZ-ATP 2.5 μM, read-out: P2X3 IC50
T1 construct: expressed in transfected cells
T1 sequence (P56373 1-397): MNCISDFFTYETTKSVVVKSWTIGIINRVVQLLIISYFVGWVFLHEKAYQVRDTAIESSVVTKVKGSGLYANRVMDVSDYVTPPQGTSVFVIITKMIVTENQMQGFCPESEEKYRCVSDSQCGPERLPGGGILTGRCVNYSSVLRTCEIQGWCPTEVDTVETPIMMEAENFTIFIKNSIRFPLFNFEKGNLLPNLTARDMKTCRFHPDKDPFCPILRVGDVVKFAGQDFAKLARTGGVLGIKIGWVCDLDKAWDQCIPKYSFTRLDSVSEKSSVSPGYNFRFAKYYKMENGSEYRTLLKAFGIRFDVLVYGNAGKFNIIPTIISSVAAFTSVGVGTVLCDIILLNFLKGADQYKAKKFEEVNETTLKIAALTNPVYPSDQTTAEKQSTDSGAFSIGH
Method: 18-24 hours before the FLIPR experiment, cells were seeded into 384 wells (10,000 cells/well) at a density of 400,000 cells/mL and incubated overnight in a cell culture incubator. […] 10 μL of test compound (dissolved at 10 mM in DMSO and serially diluted with buffer) or vehicle was then added to each well and allowed to equilibrate for 30 min at room temperature.

[2] = system: Dunkin Hartley guinea pigs, citric acid induced cough; test: Simple citric acid cough model; assay type: in vivo, guinea pig; details: 30 mg/kg
Method: Male Dunkin Hartley guinea pigs (300-350 g) were placed in the animal atomization box, the door of the atomization box was closed, and the ultrasonic atomizer (Guangdong Yuehua) was opened at the same time, at the maximum atomization amount (about 2 mL/min) 17.5% citric acid gas was filled with the atomization box, which was continuously atomized for 20 seconds, and the cough performance of the animals was continuously observed within 10 min after the atomization started. During the 10-minute observation period, manual counting of coughs was required, and the number of coughs was judged according to the guinea pig's coughing posture, such as abdominal twitching, mouth opening, head down hooking, etc., as well as the sound of coughing, the number of coughs in the first 5 minutes and the number of coughs in the first 10 minutes were recorded, and the cough incubation period of guinea pigs was also recorded, that is, the time from citric acid induction to the first cough as well as the sound of coughing.

SD rats = test: Taste disorder test by double bottle method; assay type: in vivo, rat; details: for Quinine/tap water * 100%: single intraperitoneal injection, 15 minutes
From the text: SPF male SD rats (6-8 weeks) received 3 days of adaptive drinking water training immediately after storage, and the specific training content was that animals were kept in a single cage, and two bottles of water (both common drinking water) were placed in each cage, and during the adaptive training, water treatment was forbidden all night (the drinking water bottle was removed), and drinking water was given again at 8:30 am to 5:30 pm, and then this cycle lasted for 3 days, and the two bottles of water were changed every day, and during the whole adaptive training period, animals were ate freely. All animal water bottles were removed 20 hours before the formal experiment, and water was banned until the time of the experiment. During the formal experiment, all animals were randomly divided into groups, and the test compound or vehicle was given before the water supply was renewed, and the drug was given by single intraperitoneal injection, and the administration time was determined according to the Tmax of the test compound. Then, the animals were placed in a single cage, and given two bottles of drinking water, one bottle of ordinary drinking water and one bottle of 0.3 mM tonic water, and the water consumption of animals was observed within 15 minutes, and the quinine water consumption/ordinary water consumption was statistically analyzed, with positive compound 2 as the positive control of taste disorder.

[3] = system: Dunkin Hartley guinea pigs, ATP-citric acid induced cough; test: ATP-citric acid cough model; assay type: in vivo, guinea pig
Method: Male Dunkin Hartley guinea pigs (300-400 g) were placed in a whole-body volume scanning box for 3 to 5 minutes, and then subjected to ATP atomization for 2 minutes, with an interval of 3 minutes, followed by citric acid atomization for 5 minutes, and all atomization rates were about 300 μL/min. From citrate acid atomization, cough times and cough latency of animals within 10 min were recorded. During the 10-minute observation period, manual counting of coughs was required, and the number of coughs was judged according to the guinea pig's coughing posture, such as abdominal twitching, mouth opening, head down hooking, etc., as well as the sound of coughing, the number of coughs in the first 10 minutes were recorded, and the cough incubation period of guinea pigs was also recorded.
Animals were divided into vehicle group, dextromethorphan (63 mg/kg) positive group, AF-219 (30 mg/kg) positive group and compound 172 (3, 10, 30 mg/kg) administration group of Embodiment. All compounds were administered orally, except dextromethorphan, which was administered 40 minutes before ATP-citric acid exposure, and the rest compounds were […].

[4] = molecular target: T2, hP2X2/3 (heterodimeric receptors formed by human purinergic P2X receptor subtypes 2 and 3) (Homo sapiens, UniProt P56373+Q9UBL9); test: FLIPR intracellular calcium assay, hP2X2/3 in HEK293 cells (selectivity); assay type: cell-based
T2 construct: expressed in transfected cells
T2 sequence (P56373 1-397): T1 sequence (P56373 1-397)
T2 sequence (Q9UBL9 1-471): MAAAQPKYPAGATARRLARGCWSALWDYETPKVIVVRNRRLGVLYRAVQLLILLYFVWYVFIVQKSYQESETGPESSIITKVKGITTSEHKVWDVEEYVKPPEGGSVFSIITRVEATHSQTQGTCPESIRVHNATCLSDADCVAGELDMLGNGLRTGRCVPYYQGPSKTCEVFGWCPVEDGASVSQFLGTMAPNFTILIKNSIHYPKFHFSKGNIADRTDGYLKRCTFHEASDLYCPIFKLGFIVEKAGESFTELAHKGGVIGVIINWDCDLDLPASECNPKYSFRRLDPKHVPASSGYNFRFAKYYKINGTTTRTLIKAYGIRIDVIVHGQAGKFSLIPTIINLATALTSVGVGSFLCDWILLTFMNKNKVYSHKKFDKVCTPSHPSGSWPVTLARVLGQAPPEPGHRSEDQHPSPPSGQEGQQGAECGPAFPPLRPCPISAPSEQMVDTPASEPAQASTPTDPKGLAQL
Method: 18-24 hours before the FLIPR experiment, cells were seeded into 96 wells (25000 cells/well) ata density of 250000 cells/mL and incubated overnight in a cell culture incubator. […] 75 μL 1 mM Fluo-4 AM fluorescent dye (Thermo, F14202) was added to each well, and the dye load was incubated for 1.0 hour at 37° C. Then, the 96-well plate was washed once with buffer, and 50 μL of buffer containing test compound or vehicle was added to each well, and it was incubated at room temperature for 30 minutes. […] Then agonist (BZ-ATP (Sigma, B6396) at a final concentration of 5 μM) or vehicle (ultrapure water) was added at 50 μL/well, the fluorescence value was measured at 1-second intervals for 2 minutes, and finally the output fluorescence was counted analysis.

## COC(=O)N1CCO[C@@H](Cc2c(-c3c(F)cc(S(N)(=O)=O)cc3F)nc3cc(Cl)ccn23)C1 [Compound 172, methyl (S)-2-((7-chloro-2-(2,6-difluoro-4-sulfamoylphenyl)imidazo[1,2-a]pyridin-3-yl)methyl)morpholine-4-carboxylate]
[1]
  IC50: 0.7 nM
[2]
  efficacy in words: comparable to the efficacy of positive compound
SD rats; 5 mg/kg
  Quinine/tap water * 100%: 7.05%
SD rats; 10 mg/kg
  Quinine/tap water * 100%: 7.41%
SD rats; 20 mg/kg
  Quinine/tap water * 100%: 8.66%
SD rats; 5, 10 and 20 mg/kg
  effect on quinine/water ratio in words: no obvious effect on the quinine/water ratio of rats
[3]; 3 mg/kg oral
  Cough suppression rate vs Vehicle: 30.80%
[3]; 10 mg/kg oral
  Cough suppression rate vs Vehicle: 51.20%
[3]; 30 mg/kg oral
  Cough suppression rate vs Vehicle: 52.80%
[3]; guinea pig, in vivo
  effect on number of coughs compared with the vehicle group, in words: significantly reduce the number of coughs
[4]; HEK293 cells, agonist BZ-ATP 5 μM
  IC50: > 60 µM
[4]; P2X2/3 versus P2X3
  Selectivity multiple: >85714
